{
  "source": "patent US20100189596A1",
  "about": "“COMPOSITE EMULSIFIER, AN EMULSION PREPARED FROM IT AND THE PREPARATION METHOD THEREOF” (SHENYANG PHARMACEUTICAL UNIVERSITY, priority 2007, published 2010)",
  "system": "adriamycin-induced myocardial injury model in rat",
  "test": "Protective effects on adriamycin-induced myocardial injury model in rat",
  "assay_type": "in vivo, Wistar rats",
  "source_text": "Coenzyme Q10 can reduce the cardiotoxicity induced by adriamycin. In this experiment, to adriamycin-induced myocardial injury model in rat was constructed for detecting the effects of coenzyme Q10 nanoemulsion of protecting rats from adriamycin-induced myocardial injury.\n40 Wistar rats (250±15 g, F/M=1:1) were randomly divided into five groups (8 animals each group): negative control group, ADM group, ADM+coenzyme Q10 (low dosage) group, ADM+coenzyme Q10 (medium dosage) group and ADM+coenzyme Q10 (high dosage) group. The control group received intraperitoneal injection of physiological saline at 10 mL/kg/d for 9 days. The ADM group received intraperitoneal injection of ADM at 3 mg/kg every other day for 5 times in total (9 days). The ADM+coenzyme Q10 (low, medium and high dosages) groups respectively received tail vein injection of coenzyme Q10 at 1.5, 3.0 and 6.0 mg/kg/d for 9 days, and ADM was administered at 3 mg/kg every other day for 5 times in total (9 days) (10 min after coenzyme Q10 injection, intraperitoneal injection of ADM 3 mg/kg was performed). The rats were sacrificed on the 10th day for histopathological examination and detection for the contents of malonaldehyde and SOD. The histopathological examination was performed by the steps of taking myocardial tissue from the left ventricular, fixing with 10% formaldehyde, slicing according to the conventional methods, and staining with HE.",
  "key": {"[1]": {"conditions": "ADM group, 3 mg/kg i.p. x5, n = 8"}, "[2]": {"conditions": "ADM group: ADM 3 mg/kg i.p. every other day, 5 times, n = 8"}},
  "note": "Marks after values point to notes of the source that are not given here.",
  "data": [
    {"compound": "COc1cccc2c1C(=O)c1c(O)c3c(c(O)c1C2=O)C[C@@](O)(C(=O)CO)C[C@@H]3O[C@H]1C[C@H](N)[C@H](O)[C@H](C)O1", "note": "[ADM, adriamycin]", "values": [
      {"measurement": "alterations of rat electrocardiogram", "setting": "ADM group (FIG. 2) compared with normal conditions", "value": "absent P-wave, flattened T-wave, obviously reduced ST-T segment, and decreased QRS waves"},
      {"measurement": "myocardial MDA (nmol/mg prot)", "setting": "[1]", "value": "8.99 ± 1.17^a nmol/mg prot"},
      {"measurement": "myocardial SOD (U/mg prot)", "setting": "[1]", "value": "330.02 ± 15.39^a U/mg prot"},
      {"measurement": "Pathological classification of myocardial injury: number of rats in grade II", "setting": "[2]", "value": 3},
      {"measurement": "Pathological classification of myocardial injury: number of rats in grade III", "setting": "[2]", "value": 5},
      {"measurement": "myocardial tissue slice (stained with HE)", "setting": "rats received intraperitoneal injection of ADM", "value": "seriously injured"}
    ]}
  ]
}
